Measurements reported in patent publication US12371454B2, “Cyclic peptide compound having Kras inhibitory action” (priority 2019, dated 2025).
Starred links: 1 amine or outer side, 2 acyl side, 3 side chain; linkers in the order of their positions; H or OH if unused. Positions of bridges follow the written chain, without caps; N, C: chain ends. Non-standard residues stand in square brackets, D forms with d. Residues, ends and D or L forms follow the SMILES beside them. *: point of attachment. hPhe(3-Cl-4-CF3) = N[C@@H](CCc1ccc(C(F)(F)F)c(Cl)c1)C(=O)O; X38 = CN([C@@H](Cc1cccc(OC(F)(F)F)c1)C(=O)[*:2])[*:1]; NMePhe(3-CF3) = CN[C@@H](Cc1cccc(C(F)(F)F)c1)C(=O)O; NMePhe(2-CF3) = CN[C@@H](Cc1ccccc1C(F)(F)F)C(=O)O; X25 = CN([C@@H](Cc1ccc(C(F)F)cc1)C(=O)[*:2])[*:1]; NEtPhe(4-Me) = CCN[C@@H](Cc1ccc(C)cc1)C(=O)O; NMeAbu(4,4,4-F3) = CN[C@@H](CC(F)(F)F)C(=O)O; NMedβ3hAla = C[C@H](CC(=O)[*:2])N(C)[*:1]; NMeAla(cPent) = CN[C@@H](CC1CCCC1)C(=O)O; NMeGly(cPent) = CN[C@H](C(=O)O)C1CCCC1; NMeGly(cBu) = CN[C@H](C(=O)O)C1CCC1; NMeCha = CN[C@@H](CC1CCCCC1)C(=O)O; NMeChg = CN[C@H](C(=O)O)C1CCCCC1; NMeD = CN[C@@H](CC(=O)O)C(=O)O; NMeL = CN[C@@H](CC(C)C)C(=O)O; NMeV = CN[C@H](C(=O)O)C(C)C; d(β3hA) = C[C@@H](N)CC(=O)O; Morpholide = C1CN(*)CCO1; NMeA = CN[C@@H](C)C(=O)O; Piperidide = C1CCN(*)CC1; Pyrrolidide = C1CCN(*)C1; Ac5c = NC1(C(=O)O)CCCC1; Aze = O=C(O)[C@@H]1CCN1; Aib = CC(C)(N)C(=O)O; Sar = CNCC(=O)O

Legend:
[1] = test system: Human pancreatic cancer cell line AsPC-1; assay: Measurement of AsPC-1 cell growth inhibition (AsPC-1 CGI); type: cell-based; conditions: 96 h
Method in brief: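 AsPC-1 cells in 15% FBS RPMI-1640 were exposed to test compound for 96 hours at 37° C, with CellTiter-Glo as endpoint.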

[2] = molecular target: T1, Kras and SOS1 (biotin-tagged human Kras loaded with GDP, His-tagged human SOS1) (Homo sapiens, UniProt P01116, G12D); assay: Protein-protein interaction inhibition between Kras and SOS1 (KrasGl2D-SOS PPI) using AlphaScreen; type: binding; conditions: AlphaScreen; biotin-tagged human Kras loaded with GDP, His-tagged human SOS1; read-out: KRAS G12D-SOS PPI IC50
T1 construct: made in house; host or cells: E. coli (stated for Kras only)
Method in brief: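 Donor beads (nickel) hold His-SOS1; acceptor beads (streptavidin) hold biotin-Kras bound to GDP. Signal measured at 520-620 nm following 680 nm excitation.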

T1 sequence (P01116 1-188 isoform P01116-2 G12D): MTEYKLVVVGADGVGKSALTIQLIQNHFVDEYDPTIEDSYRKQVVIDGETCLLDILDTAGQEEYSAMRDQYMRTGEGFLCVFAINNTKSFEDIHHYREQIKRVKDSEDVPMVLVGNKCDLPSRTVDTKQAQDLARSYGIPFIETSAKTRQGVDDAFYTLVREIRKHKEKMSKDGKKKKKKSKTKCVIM

CC[C@H](C)[C@@H]1NC(=O)[C@H](CC(C)C)N(C)C(=O)C[C@@H](C)N(C)C(=O)[C@H](C(C)C)N(C)C(=O)C2(CCCC2)NC(=O)[C@@H]2CCCN2C(=O)[C@H](CCc2ccc(C(F)(F)F)c(Cl)c2)NC(=O)CN(C)C(=O)[C@H](Cc2cccc(OC(F)(F)F)c2)N(C)C(=O)CN(C)C(=O)CN(C)C1=O [Compound 1637] (cyclo([Ac5c][NMeV][NMedβ3hAla][NMeL]I[Sar][Sar][X38][Sar][hPhe(3-Cl-4-CF3)]P))
IC50 [1]: 50 to 100 nM | IC50 [2]: 17 nM

CC[C@H](C)[C@@H]1NC(=O)[C@H](CC(C)C)N(C)C(=O)C[C@@H](C)NC(=O)[C@H](C2CCCC2)N(C)C(=O)C2(CCCC2)NC(=O)[C@@H]2CCCN2C(=O)[C@H](CCc2ccc(C(F)(F)F)c(Cl)c2)NC(=O)CN(C)C(=O)[C@H](Cc2ccc(C)cc2)N(CC)C(=O)[C@@H]2CCN2C(=O)[C@H](C)N(C)C1=O [Compound 1714] (cyclo([Ac5c][NMeGly(cPent)][d(β3hA)][NMeL]I[NMeA][Aze][NEtPhe(4-Me)][Sar][hPhe(3-Cl-4-CF3)]P))
IC50 [1]: 50 to 100 nM | IC50 [2]: 2.3 nM

CC[C@H](C)[C@@H]1NC(=O)[C@H](CC(C)C)N(C)C(=O)C[C@@H](C(=O)N(C)C)N(C)C(=O)[C@H](C2CCCC2)N(C)C(=O)C2(CCCC2)NC(=O)[C@H](Cc2ccc(C(F)F)cc2)N(C)C(=O)[C@H](CCc2ccc(C(F)(F)F)c(Cl)c2)NC(=O)CN(C)C(=O)[C@H](CC2CCCCC2)N(C)C(=O)[C@@H]2CCN2C(=O)[C@H](C)N(C)C1=O [Compound 1926] ([NMeL]I[NMeA][Aze][NMeCha][Sar][hPhe(3-Cl-4-CF3)][X25][Ac5c][NMeGly(cPent)][NMeD]-NMe2; lactam N-11)
IC50 [1]: 100 to 500 nM | IC50 [2]: 21 nM

CC[C@H](C)[C@@H]1NC(=O)[C@H](CC(C)C)N(C)C(=O)C[C@@H](C(=O)N2CCCCC2)N(C)C(=O)[C@H](C(C)C)N(C)C(=O)C2(CCCC2)NC(=O)[C@@H]2CCCN2C(=O)[C@H](CCc2ccc(C(F)(F)F)c(Cl)c2)NC(=O)CN(C)C(=O)[C@H](Cc2cccc(C(F)(F)F)c2)N(C)C(=O)CN(C)C(=O)CN(C)C1=O [Compound 1555] ([NMeL]I[Sar][Sar][NMePhe(3-CF3)][Sar][hPhe(3-Cl-4-CF3)]P[Ac5c][NMeV][NMeD]-Piperidide; lactam N-11)
IC50 [1]: 100 to 500 nM | IC50 [2]: 6.1 nM

CC[C@H](C)[C@@H]1NC(=O)[C@H](CC(F)(F)F)N(C)C(=O)C[C@@H](C(=O)N2CCCC2)N(C)C(=O)[C@H](C2CCCCC2)N(C)C(=O)C2(CCCC2)NC(=O)[C@@H]2CCCN2C(=O)[C@H](CCc2ccc(C(F)(F)F)c(Cl)c2)NC(=O)CN(C)C(=O)[C@H](CC2CCCCC2)N(C)C(=O)CN(C)C(=O)CN(C)C1=O [Compound 647] ([NMeAbu(4,4,4-F3)]I[Sar][Sar][NMeCha][Sar][hPhe(3-Cl-4-CF3)]P[Ac5c][NMeChg][NMeD]-Pyrrolidide; lactam N-11)
IC50 [1]: 20 to 50 nM | IC50 [2]: 0.58 nM

CC[C@H](C)[C@@H]1NC(=O)[C@H](CC(C)C)N(C)C(=O)C[C@@H](C)N(C)C(=O)[C@H](C(C)C)N(C)C(=O)C2(CCCC2)NC(=O)[C@@H]2CCCN2C(=O)[C@H](CCc2ccc(C(F)(F)F)c(Cl)c2)NC(=O)CN(C)C(=O)[C@H](Cc2ccccc2C(F)(F)F)N(C)C(=O)CN(C)C(=O)CN(C)C1=O [Compound 1567] (cyclo([Ac5c][NMeV][NMedβ3hAla][NMeL]I[Sar][Sar][NMePhe(2-CF3)][Sar][hPhe(3-Cl-4-CF3)]P))
IC50 [1]: 100 to 500 nM | IC50 [2]: 33 nM

CC[C@H](C)[C@@H]1NC(=O)[C@H](CC(C)C)N(C)C(=O)C[C@@H](C(=O)N2CCOCC2)N(C)C(=O)[C@H](C2CCCCC2)N(C)C(=O)C2(CCCC2)NC(=O)[C@@H]2CCCN2C(=O)[C@H](CCc2ccc(C(F)(F)F)c(Cl)c2)NC(=O)CN(C)C(=O)[C@H](CC2CCCC2)N(C)C(=O)CN(C)C(=O)CN(C)C1=O [Compound 1923] ([NMeL]I[Sar][Sar][NMeAla(cPent)][Sar][hPhe(3-Cl-4-CF3)]P[Ac5c][NMeChg][NMeD]-Morpholide; lactam N-11)
IC50 [1]: 50 to 100 nM | IC50 [2]: 0.89 nM

CC[C@H](C)[C@@H]1NC(=O)[C@H](CC(C)C)N(C)C(=O)C[C@@H](C(=O)N2CCCCC2)N(C)C(=O)[C@H](C(C)C)N(C)C(=O)C(C)(C)NC(=O)[C@@H]2CCCN2C(=O)[C@H](CCc2ccc(C(F)(F)F)c(Cl)c2)NC(=O)CN(C)C(=O)[C@H](CC2CCCCC2)N(C)C(=O)[C@@H]2CCN2C(=O)[C@H](C)N(C)C1=O [Compound 1751] ([NMeL]I[NMeA][Aze][NMeCha][Sar][hPhe(3-Cl-4-CF3)]P[Aib][NMeV][NMeD]-Piperidide; lactam N-11)
IC50 [1]: 100 to 500 nM | IC50 [2]: 7.3 nM

CC[C@H](C)[C@@H]1NC(=O)[C@H](C2CCC2)N(C)C(=O)C[C@@H](C(=O)N2CCOCC2)N(C)C(=O)[C@H](C2CCCCC2)N(C)C(=O)C2(CCCC2)NC(=O)[C@@H]2CCCN2C(=O)[C@H](CCc2ccc(C(F)(F)F)c(Cl)c2)NC(=O)CN(C)C(=O)[C@H](CC2CCCC2)N(C)C(=O)CN(C)C(=O)CN(C)C1=O [Compound 434] ([NMeGly(cBu)]I[Sar][Sar][NMeAla(cPent)][Sar][hPhe(3-Cl-4-CF3)]P[Ac5c][NMeChg][NMeD]-Morpholide; lactam N-11)
IC50 [1]: 50 to 100 nM | IC50 [2]: 0.52 nM
